Each molecule was assayed on cellular pERK in PC-9 cells (EGFR Ex19Del) (assay: Potency assay: pERK (AlphaLISA SureFire Ultra p-ERK1/2) in PC-9 cells). Conditions: Homo sapiens, PC-9, 1 h, PC-9 cells (EGFR Ex19Del), 1 hour incubation, AlphaLISA SureFire Ultra p-ERK1/2; read-out: SOS1 pERK IC50.
Assay type: cell-based
`C[C@@H](Nc1ncnc2c1cc(C1CCS(=O)(=O)CC1)c(=O)n2C)c1cccc2c1OCC2(F)F` [Example 33-3] was tested, and the IC50 was 34.8 nM.
In the case of `CO[C@@]1(c2cc3c(N[C@H](C)c4cccc(C(F)F)c4F)ncnc3n(C)c2=O)CCN(C(C)=O)[C@H](C)C1` [Example 32-28], the IC50 is reported as 92.1 nM.
In the case of `COC1(c2cc3c(N[C@H](C)c4cccc(C(F)F)c4F)ncnc3n(C)c2=O)CCCS(=O)(=O)CC1` (stereo partly shown) [Example 32-33], the IC50 is reported as 85.9 nM.
`CO[C@]1(c2cc3c(N[C@H](C)c4cccc(C(F)F)c4F)nc(C)nc3n(C)c2=O)CCN(C(C)=O)C1` [Example 32-62] gave an IC50 of 10.8 nM.
Molecule `C[C@@H](Nc1ncnc2c1cc(C1CS(=O)(=O)C1)c(=O)n2C)c1cccc(C(F)F)c1F` [Example 33-16] has an IC50 of 87.9 nM.
For `C[C@@H](Nc1ncnc2c1cc(C1CN(S(C)(=O)=O)C1)c(=O)n2C)c1cccc(C(F)F)c1F` [Example 33-7], the IC50 was 521 nM.
`CC(=O)N1CCC(c2cc3c(N[C@H](C)c4cccc(C(F)F)c4C(F)F)ncnc3n(C)c2=O)CC1` [Example 38, 6-(1-acetylpiperidin-4-yl)-4-{[(1R)-1-[2,3-bis(difluoromethyl)phenyl]ethyl]amino}-8-methyl-7H,8H-pyrido[2,3-d]pyrimidin-7-one] gave an IC50 of 137 nM.
Work on `COC1(c2cc3c(N[C@H](C)c4cccc(C(F)F)c4F)ncnc3n(C)c2=O)CCS(=O)(=O)CC1` [Example 32, 4-(4-{[(1R)-1-[3-(difluoro-methyl)-2-fluorophenyl]ethyl]amino}-8-methyl-7-oxo-7H,8H-pyrido[2,3-d]pyrimidin-6-yl)-4-methoxy-λ1^6-thiane-1,1-dione] yielded an IC50 of 58.4 nM.
Work on `C[C@@H](Nc1ncnc2c1cc(C(=O)N1CCC(O)(C(F)(F)F)CC1)c(=O)n2C)c1cccc(C(F)F)c1F` [Example 26-50] yielded an IC50 of 880 nM.
`C[C@@H](Nc1ncnc2c1cc(C1CCS(=O)(=O)CC1)c(=O)n2C)c1ccc(-c2ccccc2CCN)s1` [Example 33-19] was tested, and the IC50 was 182 nM.
Molecule `C[C@@H](Nc1ncnc2c1cc(C(=O)N1Cc3cccnc3C1)c(=O)n2C)c1cccc(C(F)F)c1F` [Example 26-28] has an IC50 of 766 nM.
Molecule `CO[C@]1(c2cc3c(N[C@H](C)c4cccc(C(F)F)c4F)ncnc3n(C)c2=O)C[C@H](C)N(C(C)=O)C1` [Example 32-49] has an IC50 of 102 nM.
`COC1(c2cc3c(N[C@H](C)c4cccc(C(F)F)c4F)ncnc3n(C)c2=O)C2CC1CN(C(C)=O)C2` (stereo partly shown) [Example 32-25] was tested, and the IC50 was 1440 nM.
`COC1(c2cc3c(N[C@H](C)c4cccc(C(F)F)c4F)ncnc3n(C)c2=O)CC2(CN(C(C)=O)C2)C1` [Example 32-15] showed an IC50 of 49.3 nM.
`COC1(c2cc3c(N[C@H](C)c4cccc(C(F)F)c4F)ncnc3n(C)c2=O)CCN(C(=O)C2COC2)CC1` [Example 32-12] gave an IC50 of 28.6 nM.
In the case of `C[C@@H](Nc1ncnc2c1cc(C1=CCS(=O)(=O)CC1)c(=O)n2C)c1cccc(C(F)(F)C#N)c1F` [Example 41, 2-{3-[(1R)-1-{[6-(1,1-dioxo-3,6-dihydro-2H-1λ^6-thiopyran-4-yl)-8-methyl-7-oxo-7H,8H-pyrido[2,3-d]pyrimidin-4-yl]amino}ethyl]-2-fluorophenyl}-2,2-difluoroacetonitrile], the IC50 is reported as 4480 nM.
Molecule `C[C@@H](Nc1ncnc2c1cc(C(=O)N1CC3(CCOC3)C1)c(=O)n2C)c1cccc(C(F)F)c1F` [Example 26-15] has an IC50 of 256 nM.
In the case of `CO[C@@]1(c2cc3c(N[C@H](C)c4cccc(C(F)F)c4F)ncnc3n(C)c2=O)C[C@H](C)N(C(C)=O)C1` [Example 32-50], the IC50 is reported as 153 nM.
Molecule `COC1(c2cc3c(N[C@H](C)c4cccc(C(F)F)c4F)ncnc3n(C)c2=O)CCN(S(C)(=O)=O)CC1` [Example 32-24] has an IC50 of 69.7 nM.
With `CC(=O)N1CC(c2cc3c(N[C@H](C)c4cccc(C(F)F)c4F)ncnc3n(C)c2=O)C1` [Example 33-11] the IC50 was 169 nM.
With `CCC1(O)CN(C(=O)c2cc3c(N[C@H](C)c4cccc(C(F)F)c4F)ncnc3n(C)c2=O)C1` [Example 26-8] the IC50 was 252 nM.
In the case of `C[C@@H](Nc1ncnc2c1cc(C1(N)CCS(=O)(=O)C1)c(=O)n2C)c1cccc(C(F)F)c1F` (stereo partly shown) [Example 31-7], the IC50 is reported as 45.6 nM.
With `CO[C@@]1(c2cc3c(N[C@H](C)c4cccc(C(F)F)c4F)ncnc3n(C)c2=O)CCN(C(C)=O)C1` [Example 32-23] the IC50 was 52.7 nM.
Work on `C[C@@H](Nc1ncnc2c1cc(C(=O)N(C)c1cccnc1)c(=O)n2C)c1cccc(C(F)F)c1F` [Example 26-10] yielded an IC50 of 2090 nM.
Work on `COCCOC1(c2cc3c(N[C@H](C)c4cccc(C(F)F)c4F)ncnc3n(C)c2=O)CCS(=O)(=O)CC1` [Example 32-54] yielded an IC50 of 40.2 nM.
`CC(=O)NC1(c2cc3c(N[C@H](C)c4cccc(C(F)F)c4F)ncnc3n(C)c2=O)CCS(=O)(=O)CC1` [Example 31-3] was tested, and the IC50 was 777 nM.
`CC(=O)N1CC2(C1)CN(C(=O)c1cc3c(N[C@H](C)c4cccc(C(F)F)c4F)ncnc3n(C)c1=O)C2` [Example 26-40] was tested, and the IC50 was 453 nM.
In the case of `C[C@@H](Nc1ncnc2c1cc(C1(F)CCS(=O)(=O)C1)c(=O)n2C)c1cccc(C(F)F)c1F` (stereo partly shown) [Example 29-11], the IC50 is reported as 44.3 nM.
In the case of `C[C@@H](Nc1ncnc2c1cc(C1CCS(=O)(=O)CC1)c(=O)n2C)c1cccc(C(F)F)c1Cl` [Example 33-4], the IC50 is reported as 92.5 nM.
For `C[C@@H](Nc1ncnc2c1cc(C1(N)CCS(=O)(=O)CC1)c(=O)n2C)c1cccc(C(F)F)c1F` [Example 31-1], the IC50 was 45.6 nM.
Work on `CN=S1(=O)CC=C(c2cc3c(N[C@H](C)c4cccc(C(F)F)c4F)ncnc3n(C)c2=O)CC1` (stereo partly drawn) [Example 24, 4-(((R)-1-(3-(difluoromethyl)-2-fluorophenyl)ethyl)amino)-8-methyl-6-(1-(methylimino)-1-oxido-1,2,3,6-tetrahydro-1λ^6-thiopyran-4-yl)pyrido[2,3-d]pyrimidin-7(8H)-one] yielded an IC50 of 61.4 nM.
`COC1(c2cc3c(N[C@H](C)c4cccc(C(F)F)c4F)ncnc3n(C)c2=O)CCOCC1` [Example 32-56] gave an IC50 of 93.7 nM.
`COC1(c2cc3c(N[C@H](C)c4cccc(C(F)F)c4F)ncnc3n(C)c2=O)CC2(C1)CS(=O)(=O)C2` [Example 32-5] was tested, and the IC50 was 35.7 nM.
Work on `COn1c(=O)c(C2CCS(=O)(=O)CC2)cc2c(N[C@H](C)c3cccc(C(F)F)c3F)ncnc21` [Example 53, 4-(4-{[(1R)-1-[3-(difluoromethyl)-2-fluorophenyl]ethyl]amino}-8-methoxy-7-oxo-7H,8H-pyrido[2,3-d]pyrimidin-6-yl)-1λ^6-thiane-1,1-dione] yielded an IC50 of 36.7 nM.
Work on `CN=S1(=O)CCC(F)(c2cc3c(N[C@H](C)c4cccc(C(F)F)c4F)ncnc3n(C)c2=O)CC1` (single isomer, unassigned) [Example 51] yielded an IC50 of 41.1 nM.
In the case of `COC1(c2cc3c(N[C@H](C)c4cccc(C(F)F)c4F)ncnc3n(C)c2=O)CCC2(CC1)CS(=O)(=NC1CC1)C2` (stereo partly shown) [Example 68-1], the IC50 is reported as 24.1 nM.
For `C[C@H](Nc1ncnc2c1cc(C1=CCS(=O)(=O)CC1)c(=O)n2C)c1cccc(C(F)(F)C#N)c1F` [Example 41-1], the IC50 was > 10000 nM.
With `C[C@@H](Nc1ncnc2c1cc(C1(C#N)CC3(C1)CS(=O)(=O)C3)c(=O)n2C)c1cccc(C(F)F)c1F` [Example 36-6] the IC50 was 33.3 nM.
For `CO[C@@]1(c2cc3c(N[C@H](C)c4cccc(C(F)F)c4F)ncnc3n(C)c2=O)C[C@@H](C)N(C(C)=O)C1` [Example 32-48], the IC50 was 5.4 nM.
Molecule `Cc1nc(N[C@H](C)c2cccc(C(F)(F)CO)c2)c2cc(C3=CCNCC3)c(=O)n(C)c2n1` [Example 4, (R)-4-((1-(3-(1,1-difluoro-2-hydroxyethyl)phenyl)ethyl)amino)-2,8-dimethyl-6-(1,2,3,6-tetrahydropyridin-4-yl)pyrido[2,3-d]pyrimidin-7(8H)-one] has an IC50 of 481 nM.
`Cc1nc(N[C@H](C)c2cccc(C(F)F)c2F)c2cc(N3CCOCC3)c(=O)n(C)c2n1` [Example 2-1] was tested, and the IC50 was 112 nM.
Molecule `Cc1nc(N[C@H](C)c2cc(N)cc(C(F)(F)F)c2)c2cc(C3=CCOCC3)c(=O)n(C)c2n1` [Example 7, (R)-4-((1-(3-amino-5-(trifluoromethyl)phenyl)ethyl)amino)-6-(3,6-dihydro-2H-pyran-4-yl)-2,8-dimethylpyrido[2,3-d]pyrimidin-7(8H)-one] has an IC50 of 72.4 nM.
`C[C@@H](Nc1ncnc2c1cc(C(=O)N1CC3(CCOCC3)C1)c(=O)n2C)c1cccc(C(F)F)c1F` [Example 26-33] was tested, and the IC50 was 152 nM.
`CC(=O)N1CCC(O)(c2cc3c(N[C@H](C)c4cccc(C(F)F)c4F)ncnc3n(C)c2=O)CC1` [Example 28-8] gave an IC50 of 32.6 nM.

Same assay, conditions: PC-9 cells (EGFR Ex19Del), 1 hour incubation, AlphaLISA SureFire Ultra p-ERK1/2; read-out: SOS1 pERK IC50
In the case of `COC1(c2cc3c(N[C@H](C)c4cccc(C(F)F)c4F)ncnc3n(C)c2=O)CCS(=O)(=NC2CC2)CC1` (single isomer, unassigned) [Example 69], the IC50 is reported as 94 nM.
Work on `C[C@@H](Nc1ncnc2c1cc(C1(F)CCC3(CC1)CS(=O)(=NC1CC1)C3)c(=O)n2C)c1cccc(C(F)F)c1F` (single isomer, unassigned) [Example 56-1] yielded an IC50 of 121 nM.
Work on `C[C@@H](Nc1ncnc2c1cc(C1(N)CCP(C)(=O)CC1)c(=O)n2C)c1cccc(C(F)F)c1F` (stereo partly shown) [Example 31-10] yielded an IC50 of 51.8 nM.
`CC1CC(c2cc3c(N[C@H](C)c4cccc(C(F)F)c4F)ncnc3n(C)c2=O)CCS1(=O)=O` (stereo partly shown) [Example 33-8] showed an IC50 of 54.7 nM.
In the case of `C[C@@H](Nc1ncnc2c1cc(C1CCS(=O)(=NC3CC3)CC1)c(=O)n2C)c1cccc(C(F)F)c1F` (single isomer, unassigned) [Example 64-1], the IC50 is reported as 26.3 nM.
Work on `COC1(c2cc3c(N[C@H](C)c4cccc(C(F)F)c4F)ncnc3n(C)c2=O)CCCS(=O)(=O)CC1` (stereo partly shown) [Example 32-34] yielded an IC50 of 71.1 nM.
`C[C@@H](Nc1ncnc2c1cc(C13CCOCC1C3)c(=O)n2C)c1cccc(C(F)F)c1F` (single isomer, unassigned) [Example 54-3] gave an IC50 of 376 nM.
Molecule `C[C@@H](Nc1ncnc2c1cc(C1(C#N)CCS(=O)(=NC3CC3)CC1)c(=O)n2C)c1cccc(C(F)F)c1F` (single isomer, unassigned) [Example 58] has an IC50 of 271 nM.
In the case of `CC1CC(c2cc3c(N[C@H](C)c4cccc(C(F)F)c4F)ncnc3n(C)c2=O)CCS1(=O)=O` (stereo partly shown) [Example 33-12], the IC50 is reported as 40.7 nM.
In the case of `C[C@@H](Nc1ncnc2c1cc(C1CCS(=O)(=O)C1)c(=O)n2C)c1cccc(C(F)F)c1F` (stereo partly shown) [Example 33-20], the IC50 is reported as 52.7 nM.
In the case of `CN=S1(=O)CCC(c2cc3c(N[C@H](C)c4cccc(C(F)F)c4F)ncnc3n(C)c2=O)CC1` (single isomer, unassigned) [Example 64-3], the IC50 is reported as 58.3 nM.

— patent publication US11168102B1, “Bicyclic heteroaryl compounds and uses thereof” (Revolution Medicines, Inc., priority 2019, dated 2021)
